Structures are written as SMILES.

Series [1] has as its system L. major. The format is in vivo, C57BL/6 mice. The procedure: Mouse Model of CL. To assess the in vivo efficacy of PZA in a relevant in vivo model of cutaneous leishmaniasis, C57BL/6 mice were intradermally infected with 5×10^5 L. major parasites per ear (n=6 mice, 12 ears). One day after infection, mice were treated orally with PZA at several concentrations (900-150 mg/kg) for four weeks, five days a week. […] Parasite burden in ears was determined at 5 weeks post infection in all experimental groups.
Mice (n=6) were anesthetized with isoflurane (Abbott Laboratories, Chicago, Ill.) and vaccinated intradermally in both ears with 5×10^5 L. major promastigotes in a volume of 10 μl using a 27½ G needle. PZA was diluted in water and administered by oral gavage in a 0.2 ml volume. A control group was treated with water containing DMSO (3.8%). The timetable for the experiment was as follows: day 0, infection; days 1-5, 8-12, 15-19 and 22-26, drug administration, and day 70, sacrifice. Lesion size was monitored 1-2 times per week by measuring the lesion diameter with a vernier caliper. Mice were sacrificed by CO2 inhalation.
Parasite loads in the ears were determined as previously described. Briefly, the ventral and dorsal sheets of the infected ears were separated and deposited in RPMI containing 100 U/ml penicillin/100 μg/ml streptomycin and Liberase CI enzyme blend (Boehringer Mannheim, 0.5 mg/ml). Ears were incubated for 60 min at 37° C. The sheets were dissociated using a handheld tissue homogenizer. The homogenates were filtered using a 70 μm an cell strainer (BD Falcon, San Jose, Calif.) and serially diluted in a 96-well flat bottom microtiter plate containing biphasic medium prepared using 50 μl NNN medium containing 20% of defibrinated rabbit blood overlaid with 100 μl medium 199. The number of viable parasites in each ear was estimated from the highest dilution at which promastigotes could be grown out after 7 days of incubation at 26° C.

Series [2] has as its system J774 cells. Briefly: J774 cell activation, surface markers by flow cytometry. The format is cell-based, murine. The conditions noted are these: 10 and 100 μM, with or without L. major. The procedure:
Because of the strong in vivo effect of PZA, we studied the effect of treatment on macrophages. First, we looked at activation markers and cytokine secretion by J774 cells (a murine macrophage cell line) following treatment with PZA (10 and 100 μM) in the presence or absence of L. major infection (1:5 macrophage:parasite ratio) were examined. As a positive control, cells were exposed to a mixture of IFN-γ and LPS, known to increase the level of activation. Expression of surface molecules was determined in unstimulated cells, and on infected, untreated cultures. Twenty-four hours after infection and/or treatment, cells were collected and stained with fluorescent antibodies against the co-stimulatory molecules CD80 and CD86, as well as MHC Class II, and analyzed by flow cytometry.
J774 cells or bone marrow-derived cells were seeded onto 24-well plates at a concentration of 5×10^5 cells/ml. Twenty-four hours later, PZA was added to the wells at different concentrations in the absence or presence of L. major (1:5 parasite ratio). In some experiments, J774 cells were treated with amphotericin B (0.1, 0.5, or 1 μg/ml). […] For each sample, at least 50,000 cells were analyzed. The data were collected and analyzed using CELLQuest software and a FACScalibur flow cytometer (Becton Dickinson, San Jose, Calif.).

Series [3] deals with bone marrow-derived macrophages. The series is described as follows: Cytokine and NO production in bone marrow-derived macrophages. Particulars: macrophage, drug 100 μM. Details: unit not given here. The series is classed as cell-based, C57BL/6 mice. The protocol:
(§1) Bone marrow cells were obtained and were grown in the presence of the cytokines M-CSF or GM-CSF to induce differentiation of macrophages or dendritic cells, respectively. The study of the immune response of dendritic cells was included because of their importance for the initiation of the immune response against L. major. […] Again, this effect was rescued by the treatment of macrophages with compounds of formula I, namely, either PZA or 5-Cl PZA.
(§2) Parasite and cell culture. L. major clone V1 (MHOM/IL/80/Friedlin) promastigotes were grown at 26° C. in medium 199 supplemented with 20% heat-inactivated fetal calf serum (FCS, Gemini, Sacramento), 100 U/ml penicillin, 100 μg/ml streptomycin, 2 mM L-glutamine, 40 mM Hepes, 0.1 mM adenine (in 50 mM Hepes) and […] hemin (in 50% triethanolamine). The macrophage murine cell line J774 (Cat. No. TIB-67TM) was cultured in DMEM (Sigma-Aldrich, St. Louis, Mo.) with 10% FCS, 100 U/ml penicillin, 100 μg/ml streptomycin and 2 mM glutamine (Sigma-Aldrich) at 37° C. under 5% CO2 atmosphere. Culture medium was changed twice per week. Subcultures were performed when monolayers covered 90% of the bottom of culture flasks. For experiments involving macrophages and dendritic cells, bone marrow was obtained from C57BL/6 mouse femurs and grown for 6-8 days in RPMI 1640 supplemented as above in the presence of 10% L929 conditioned medium (to generate macrophages) or 20 ng/ml GM-CSF (to generate dendritic cells).
(§3) J774 cells or bone marrow-derived cells were seeded onto 24-well plates at a concentration of 5×10^5 cells/ml. Twenty-four hours later, PZA was added to the wells at different concentrations in the absence or presence of L. major (1:5 parasite ratio). In some experiments, J774 cells were treated with amphotericin B (0.1, 0.5, or 1 μg/ml). Two control groups were also included in this experiment: a positive control of activation consisting in a group of uninfected cells treated with 100 ng/ml LPS and 10 IU IFN-γ as a positive control of activation, and a negative control of activation, consisting in uninfected, untreated cells. Cell cultures were maintained overnight, and then cultured for an additional 6 h with brefeldin A (10 μg/ml), harvested by scraping and fixed in 2% paraformaldehyde. Prior to staining, cells were incubated with an anti-Fc III/II receptor and 10% normal mouse serum (NMS) in PBS containing 0.1% BSA, 0.01% NaN3. Cells were permeabilized with saponin and stained for the surface markers CD80 (clone 16-10A1), CD86 (clone GL1), MHCI (clone 28-14-8), MHCII (clone M5/114.15.2) and for the cytokines IL-12p40/p70 (clone C17.8) and IL-10 (clone JESS-16E3). Incubations were carried out for 30 min on ice. All antibodies were purchased from BD Biosciences or eBioscience. For each sample, at least 50,000 cells were analyzed. The data were collected and analyzed using CELLQuest software and a FACScalibur flow cytometer (Becton Dickinson, San Jose, Calif.).

The subject of series [4] is bone marrow-derived dendritic cells. Briefly: Cytokine and NO production in bone marrow-derived dendritic cells. The format is cell-based, C57BL/6 mice. Details: unit not given here. The conditions noted are these: dendritic cell, drug 100 μM. The protocol: as §1, §2, §3

With `NC(=O)c1cnc(Cl)cn1` [5-Cl PZA, 5-chloro pyrazinamide], the “average lesion size compared to untreated controls” value in series [1] (5-Cl PZA oral, 150 mg/kg) was “significant reduction in average lesion size”. For the same compound, the “expression of costimulatory molecules CD80, CD86 and MHC Class II” value in series [2] is “enhanced”. The IL-10 production amounted to 499 ± 312 in series [3] (infected with L. major (Lm)), 415 ± 210 in series [3] (uninfected), 342 ± 398 in series [4] (infected with L. major (Lm)) and 265 ± 213 in series [4] (uninfected). The IL-12 production in series [3] (infected with L. major (Lm)) turned out to be 1821 ± 645; in series [3] (uninfected) it was 1767 ± 526; in series [4] (infected with L. major (Lm)), 2121 ± 945; in series [4] (uninfected) it was 1962 ± 765.
With `NC(=O)c1cnccn1` [PZA, pyrazinamide], in series [1] (12 weeks post infection), the “parasite burden in ears after healing” value is “comparable among all experimental groups”. In series [1] (PZA oral 900-150 mg/kg, four weeks, five days a week, all time points), the “average lesion size compared with untreated mice” value is “significant (P=0.0001) reduction of the average lesion size”. Further, the “decrease of parasite burden in infected ears compared to untreated control” value in series [1] (PZA oral, week 6 post infection) is recorded as 100 fold. Moreover, the “body weight of experimental animals” value in series [1] (mouse, in vivo) is “no significant differences in body weight”. Besides, the “expression of costimulatory molecules CD80, CD86 and MHC Class II” value in series [2] is “increased expression”. Besides, the IL-10 production was 199 ± 120 in series [3] (infected with L. major (Lm)), 155 ± 21 in series [3] (uninfected), 203 ± 60 in series [4] (infected with L. major (Lm)) and 185 ± 63 in series [4] (uninfected). The IL-12 production is on record as 921 ± 445 in series [3] (infected with L. major (Lm)), 867 ± 546 in series [3] (uninfected), 1035 ± 785 in series [4] (infected with L. major (Lm)) and 956 ± 145 in series [4] (uninfected).

For the origin of these results see patent US20120157396A1, “PYRAZINAMIDE FOR IMMUNOSTIMULATION AND THE TREATMENT OF LEISHMANIASES” (priority 2009, published 2012).
